Consider five compounds from patent publication US12083124B2 (Incyte Corporation, priority 2019, dated 2024).

Like-named read-outs stand apart in the source and are kept apart here. Bounds are passed on as bounds.

The target of test [1] is wild-type un-phosphorylated FGFR1 (Homo sapiens, UniProt P11362). The test can be described thus: FGFR Enzymatic Assay (FRET peptide phosphorylation), FGFR1. To be noted: pre-incubated for 4 hours.
For test [2], the target named is wild-type un-phosphorylated FGFR3 (Homo sapiens, UniProt P22607). The test can be described thus: FGFR Enzymatic Assay (FRET peptide phosphorylation), FGFR3.
Test [3] has as its target wild-type un-phosphorylated FGFR4 (Homo sapiens, UniProt P22455). Nature of the test: FGFR Enzymatic Assay (FRET peptide phosphorylation), FGFR4.
For test [4], the target named is wild-type un-phosphorylated FGFR2 (Homo sapiens, UniProt P21802). The test can be described thus: FGFR Enzymatic Assay (FRET peptide phosphorylation), FGFR2.
Where [5] appears, read: read-out: FGFR1, wild-type un-phosphorylated FGFR1.
[6] abbreviates: read-out: FGFR4, wild-type un-phosphorylated FGFR4, pre-incubated for 4 hours.
The mark [7] stands for this setting: FGFR1, wild-type un-phosphorylated FGFR1.

wild-type un-phosphorylated FGFR4, sequence (P22455 22-802): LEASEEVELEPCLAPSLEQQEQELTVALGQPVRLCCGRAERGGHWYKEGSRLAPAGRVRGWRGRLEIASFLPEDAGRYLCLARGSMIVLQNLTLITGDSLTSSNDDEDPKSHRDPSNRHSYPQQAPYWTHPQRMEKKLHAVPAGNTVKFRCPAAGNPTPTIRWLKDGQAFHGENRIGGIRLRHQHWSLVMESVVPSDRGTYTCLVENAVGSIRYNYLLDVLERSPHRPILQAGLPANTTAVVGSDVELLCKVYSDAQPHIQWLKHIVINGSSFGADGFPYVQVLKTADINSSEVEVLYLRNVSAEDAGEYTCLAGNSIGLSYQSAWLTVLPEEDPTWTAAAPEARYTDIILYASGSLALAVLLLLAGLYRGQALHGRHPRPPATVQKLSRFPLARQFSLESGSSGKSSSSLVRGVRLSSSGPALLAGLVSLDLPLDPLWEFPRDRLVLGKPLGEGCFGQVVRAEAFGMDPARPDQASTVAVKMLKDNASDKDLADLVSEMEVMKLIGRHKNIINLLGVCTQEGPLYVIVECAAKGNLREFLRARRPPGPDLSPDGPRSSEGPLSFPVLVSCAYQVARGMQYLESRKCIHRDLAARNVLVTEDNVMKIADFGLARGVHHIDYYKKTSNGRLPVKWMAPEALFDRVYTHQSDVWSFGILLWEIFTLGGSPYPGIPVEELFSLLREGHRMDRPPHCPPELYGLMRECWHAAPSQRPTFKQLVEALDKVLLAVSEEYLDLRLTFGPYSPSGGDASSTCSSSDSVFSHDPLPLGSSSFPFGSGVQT
wild-type un-phosphorylated FGFR1, sequence (P11362 22-822): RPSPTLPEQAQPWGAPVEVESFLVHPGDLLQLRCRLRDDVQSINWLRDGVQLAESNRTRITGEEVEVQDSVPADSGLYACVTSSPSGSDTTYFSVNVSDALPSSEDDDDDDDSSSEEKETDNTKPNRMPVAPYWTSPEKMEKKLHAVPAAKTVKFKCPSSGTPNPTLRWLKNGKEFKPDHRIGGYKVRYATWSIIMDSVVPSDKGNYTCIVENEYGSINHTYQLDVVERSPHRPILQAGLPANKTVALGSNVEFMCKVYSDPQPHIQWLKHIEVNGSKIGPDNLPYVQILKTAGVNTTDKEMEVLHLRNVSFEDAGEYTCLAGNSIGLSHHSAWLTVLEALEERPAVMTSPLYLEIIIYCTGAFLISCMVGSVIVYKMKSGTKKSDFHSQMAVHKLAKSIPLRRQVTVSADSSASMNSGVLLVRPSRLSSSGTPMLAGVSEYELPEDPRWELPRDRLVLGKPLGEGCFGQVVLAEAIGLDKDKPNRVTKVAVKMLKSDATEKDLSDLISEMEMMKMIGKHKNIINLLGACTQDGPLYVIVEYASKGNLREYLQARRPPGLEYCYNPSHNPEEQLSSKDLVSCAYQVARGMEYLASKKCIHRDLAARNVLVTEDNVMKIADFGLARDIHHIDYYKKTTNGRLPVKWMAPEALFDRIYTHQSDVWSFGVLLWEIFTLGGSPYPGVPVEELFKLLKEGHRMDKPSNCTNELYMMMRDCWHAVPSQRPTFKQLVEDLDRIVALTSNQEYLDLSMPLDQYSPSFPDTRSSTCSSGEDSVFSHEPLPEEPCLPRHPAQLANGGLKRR
wild-type un-phosphorylated FGFR2, sequence (P21802 22-821): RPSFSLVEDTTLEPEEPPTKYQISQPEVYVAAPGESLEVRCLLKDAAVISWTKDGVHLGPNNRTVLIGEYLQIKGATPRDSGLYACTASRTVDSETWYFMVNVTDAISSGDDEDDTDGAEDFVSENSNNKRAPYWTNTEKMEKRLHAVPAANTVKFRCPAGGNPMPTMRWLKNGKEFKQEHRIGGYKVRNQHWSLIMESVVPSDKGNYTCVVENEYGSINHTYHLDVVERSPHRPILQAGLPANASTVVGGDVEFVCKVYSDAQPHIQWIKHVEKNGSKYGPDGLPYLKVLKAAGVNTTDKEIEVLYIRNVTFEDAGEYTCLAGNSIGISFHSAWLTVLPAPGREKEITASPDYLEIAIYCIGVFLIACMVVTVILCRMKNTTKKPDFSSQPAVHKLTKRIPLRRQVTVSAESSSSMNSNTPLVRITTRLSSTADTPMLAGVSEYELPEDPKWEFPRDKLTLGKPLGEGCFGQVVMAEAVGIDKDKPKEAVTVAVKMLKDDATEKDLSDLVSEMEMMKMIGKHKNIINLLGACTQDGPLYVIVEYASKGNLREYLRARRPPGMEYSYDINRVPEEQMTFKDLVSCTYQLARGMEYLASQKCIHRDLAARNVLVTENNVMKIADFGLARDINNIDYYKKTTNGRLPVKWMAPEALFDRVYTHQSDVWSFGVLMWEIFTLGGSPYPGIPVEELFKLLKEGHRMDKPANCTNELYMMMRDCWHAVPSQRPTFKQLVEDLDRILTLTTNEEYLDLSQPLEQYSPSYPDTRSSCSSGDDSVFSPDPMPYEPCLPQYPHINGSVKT
wild-type un-phosphorylated FGFR3, sequence (P22607 23-806): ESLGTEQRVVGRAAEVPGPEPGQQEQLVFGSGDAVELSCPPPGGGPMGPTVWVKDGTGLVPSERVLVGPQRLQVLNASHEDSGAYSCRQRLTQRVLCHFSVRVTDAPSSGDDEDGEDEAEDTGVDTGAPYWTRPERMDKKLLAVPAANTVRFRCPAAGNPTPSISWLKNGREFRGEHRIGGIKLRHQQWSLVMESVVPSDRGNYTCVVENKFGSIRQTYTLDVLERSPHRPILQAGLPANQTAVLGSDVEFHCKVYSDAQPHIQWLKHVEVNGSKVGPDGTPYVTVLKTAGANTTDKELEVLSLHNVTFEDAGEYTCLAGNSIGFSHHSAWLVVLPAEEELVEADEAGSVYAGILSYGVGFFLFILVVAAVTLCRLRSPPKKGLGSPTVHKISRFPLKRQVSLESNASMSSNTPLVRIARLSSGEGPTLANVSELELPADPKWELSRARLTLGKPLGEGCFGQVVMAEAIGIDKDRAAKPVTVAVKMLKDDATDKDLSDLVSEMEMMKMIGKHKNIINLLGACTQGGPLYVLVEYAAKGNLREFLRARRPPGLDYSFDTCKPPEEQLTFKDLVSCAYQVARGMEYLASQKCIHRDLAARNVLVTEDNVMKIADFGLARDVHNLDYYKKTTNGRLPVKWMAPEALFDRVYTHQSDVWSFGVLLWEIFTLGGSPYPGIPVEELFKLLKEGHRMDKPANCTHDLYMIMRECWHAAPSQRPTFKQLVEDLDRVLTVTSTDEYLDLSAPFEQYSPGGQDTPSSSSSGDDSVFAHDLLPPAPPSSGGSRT

As for `COc1cc2[nH]nc(-c3ccc(C45CC4CN(C4CCOCC4)C5)nc3)c2nc1-c1cccc2c1CCC2` (centres unmarked) [Example 193, 5-(2,3-Dihydro-1H-inden-4-yl)-6-methoxy-3-(6-(3-(tetrahydro-2H-pyran-4-yl)-3-azabicyclo[3.1.0]hexan-1-yl)pyridin-3-yl)-1H-pyrazolo[4,3-b]pyridine], the IC50 in test [1] (setting [5]) is 0.006 to 0.04 µM; in test [2], less than 0.006 µM; in test [3] (setting [6]), 0.006 to 0.04 µM; in test [4] it was less than 0.006 µM.
For the compound `COc1cc2[nH]nc(-c3ccc(C45CC4CN(CCO)C5)nc3)c2nc1-c1cccc2c1CCC2` (centres unmarked) [Example 194A, 2-(1-(5-(5-(2,3-Dihydro-1H-inden-4-yl)-6-methoxy-1H-pyrazolo[4,3-b]pyridin-3-yl)pyridin-2-yl)-3-azabicyclo[3.1.0]hexan-3-yl)ethan-1-ol], the IC50 was 0.006 to 0.04 µM in test [1] (setting [5]), less than 0.006 µM in test [2], 0.006 to 0.04 µM in test [3] (setting [6]) and less than 0.006 µM in test [4].
Consider `COc1cc2[nH]nc(-c3ccc(C4(C#N)CCN(C(=O)CO)C4)nc3)c2nc1-c1cccc2c1CCC2` (centres unmarked) [Example 198, 3-(5-(5-(2,3-Dihydro-1H-inden-4-yl)-6-methoxy-1H-pyrazolo[4,3-b]pyridin-3-yl)pyridin-2-yl)-1-(2-hydroxyacetyl)pyrrolidine-3-carbonitrile], for which the IC50 was 0.006 to 0.04 µM in test [1] (setting [5]), less than 0.006 µM in test [2], 0.04 to 0.1 µM in test [3] and less than 0.006 µM in test [4].
`COc1cc2[nH]nc(-c3ccc(CN4CCN(C)C(=O)[C@@H]4C)nc3)c2nc1-c1cccc2c1CCC2` [Example 199, (S)-4-((5-(5-(2,3-Dihydro-1H-inden-4-yl)-6-methoxy-1H-pyrazolo[4,3-b]pyridin-3-yl)pyridin-2-yl)methyl)-1,3-dimethylpiperazin-2-one]: the IC50 in test [1] (setting [7]) is 0.04 to 0.1 µM; in test [2], less than 0.006 µM; in test [3], 0.04 to 0.1 µM; in test [4] it was less than 0.006 µM.
In the case of `COc1cc2[nH]nc(-c3ccc(CN4C[C@H]5C[C@@H]4CO5)nc3)c2nc1-c1cccc2c1CCC2` [Example 200, (1R,4R)-5-((5-(5-(2,3-Dihydro-1H-inden-4-yl)-6-methoxy-1H-pyrazolo[4,3-b]pyridin-3-yl)pyridin-2-yl)methyl)-2-oxa-5-azabicyclo[2.2.1]heptane], the IC50 was 0.04 to 0.1 µM in test [1] (setting [7]), less than 0.006 µM in test [2], 0.04 to 0.1 µM in test [3] and less than 0.006 µM in test [4].
